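In this assay, cells in 96-well plates receive the compound at five concentrations for 48 hours. Endpoints are linearly interpolated between the surrounding concentrations. GI50 = concentration required for 50% inhibition of growth.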 The source made the active and inactive calls. Rule as the data show it: active = GI50 up to about 1.1 µM and inactive = higher.

Test systems include SNB-19; SF-268; COLO 205; NCI-H23; HT-29; NCI-H522; Hs-578T; UACC-62; OVCAR-4; K562; SK-MEL-2; 786-0; RPMI-8226; HCC 2998; T47D; MOLT-4; SF-539; MCF7; EKVX; SN12C.
Common to all, as to assay: inhibition of tumour cell growth, NCI panel, 48 h

For `CN1CCN(CCCCN2c3ccccc3Sc3cc(N=[N+]=[N-])ccc32)CC1`, the GI50 with SNB-19 was 3.62 µM (inactive); with SF-268 it was 6.19 µM (inactive); with COLO 205, 1.74 µM (inactive); in the assay on NCI-H23 it was 6.31 µM (inactive); with HT-29 it was 1.61 µM (inactive); in the assay on NCI-H522 it was 1.7 µM (inactive). The GI50 in the assay with Hs-578T is 1.95 µM (inactive); in the assay with UACC-62, 2.13 µM (inactive); in the assay with OVCAR-4, 2.88 µM (inactive); with K562, 1.38 µM (inactive); in the assay on SK-MEL-2, 2.09 µM (inactive); in the assay on 786-0, 1.62 µM (inactive). The GI50 in the assay with RPMI-8226 is 2.31 µM (inactive); with HCC 2998, 1.39 µM (inactive); in the assay on T47D, 9.23 µM (inactive); in the assay with MOLT-4 it was 1.77 µM (inactive); in the assay on SF-539, 3.31 µM (inactive); with MCF7 it was 1.99 µM (inactive). Besides, the GI50 was 5.69 µM (inactive) in the assay on EKVX and 2.31 µM (inactive) in the assay on SN12C.
In the case of `CCCCCCCCCCCCCCCCCCOCC(O)COP(=O)(O)OCC1OC(n2cc(F)c(=O)[nH]c2=O)CC1O` (stereo not given), the GI50 with SNB-19 is 10.3 µM (inactive); in the assay with SF-268, 0.236 µM (active); in the assay with COLO 205, 5.15 µM (inactive); with NCI-H23, 2.97 µM (inactive); with HT-29 it was 10.5 µM (inactive); in the assay on NCI-H522 it was 11.9 µM (inactive). The GI50 in the assay with Hs-578T is 14.3 µM (inactive); with UACC-62, 0.579 µM (active); in the assay on OVCAR-4, 15.1 µM (inactive); with K562, 10.4 µM (inactive); in the assay with SK-MEL-2 it was 21.4 µM (inactive); in the assay with 786-0, 1.22 µM (inactive). The GI50 in the assay on RPMI-8226 is 2.17 µM (inactive); in the assay on HCC 2998 it was 0.0467 µM (active); in the assay on T47D it was 2.58 µM (inactive); with MOLT-4 it was 3.02 µM (inactive); in the assay on SF-539, 0.0721 µM (active); in the assay on MCF7, 0.492 µM (active). Besides, the GI50 is 37 µM (inactive) with EKVX and 5.81 µM (inactive) in the assay on SN12C.
With `CNC1C(O)C(OC2C(N)CC(N)C(OC3OC(C(C)O)C(O)C(O)C3N)C2O)OCC1(C)O` (stereo not given), the GI50 with SNB-19, in the assay on SF-268, in the assay with COLO 205, with NCI-H23, in the assay with HT-29 and with NCI-H522 was > 100 µM (inactive) throughout. Also, the GI50 with Hs-578T, in the assay with UACC-62, in the assay on OVCAR-4, in the assay with K562, with SK-MEL-2 and with 786-0 was > 100 µM (inactive) throughout. The GI50 in the assay with RPMI-8226, in the assay with HCC 2998, with T47D, with MOLT-4, with SF-539 and in the assay with MCF7 was > 100 µM (inactive) throughout. For the same compound, the GI50 with EKVX and in the assay on SN12C was > 100 µM (inactive) in each case.
Regarding `NNC(=O)CSc1nc2ccccc2c(=O)n1N`, the GI50 is 14.9 µM (inactive) in the assay on SNB-19; 39.9 µM (inactive) with SF-268; > 100 µM (inactive) in the assay on COLO 205; 29.8 µM (inactive) in the assay with NCI-H23; 22.2 µM (inactive) in the assay on HT-29; 58.7 µM (inactive) in the assay on NCI-H522. In addition, the GI50 with Hs-578T was 29.7 µM (inactive); in the assay on UACC-62 it was 27.6 µM (inactive); in the assay on OVCAR-4, > 100 µM (inactive); in the assay on K562 it was > 100 µM (inactive); in the assay with SK-MEL-2 it was 17.6 µM (inactive); in the assay with 786-0 it was 19 µM (inactive). In addition, the GI50 in the assay with RPMI-8226 was > 100 µM (inactive); in the assay on HCC 2998 it was > 100 µM (inactive); in the assay with T47D, > 100 µM (inactive); with MOLT-4, > 100 µM (inactive); in the assay on SF-539 it was 31 µM (inactive); in the assay with MCF7, 91.8 µM (inactive). Also, the figures for the GI50 with EKVX and in the assay with SN12C were 53.8 µM (inactive) and 37.8 µM (inactive), respectively.
In the case of `Cc1cc2c(O)c(c1)CN(CC(=O)O)Cc1cc(C)cc(c1O)CN(CC(=O)O)Cc1cc(C)cc(c1O)CN(CC(=O)O)C2`, the GI50 with SNB-19, with SF-268, with COLO 205, in the assay with NCI-H23, in the assay on HT-29 and with NCI-H522 was > 100 µM (inactive) each time. Moreover, the GI50 in the assay with Hs-578T, with UACC-62, in the assay with OVCAR-4, with K562, in the assay on SK-MEL-2 and with 786-0 was > 100 µM (inactive) in each case. In addition, the GI50 with RPMI-8226, with HCC 2998, with T47D, in the assay with MOLT-4, in the assay on SF-539 and with MCF7 was > 100 µM (inactive) in each case. In addition, the GI50 with EKVX and with SN12C was > 100 µM (inactive) each time.
As for `NNC(=O)CC(=O)Nc1cccc(Cl)c1`, the GI50 with SNB-19 is > 100 µM (inactive); with SF-268, > 100 µM (inactive); with COLO 205 it was > 100 µM (inactive); with NCI-H23, > 100 µM (inactive); with HT-29 it was > 100 µM (inactive); in the assay on NCI-H522, 25.4 µM (inactive). In addition, the GI50 in the assay on Hs-578T, in the assay on UACC-62, with OVCAR-4, with K562, in the assay on SK-MEL-2 and with 786-0 was > 100 µM (inactive) each time. In addition, the GI50 in the assay on RPMI-8226, in the assay with HCC 2998, with T47D, with MOLT-4, in the assay with SF-539 and in the assay with MCF7 was > 100 µM (inactive) each time. For the same compound, the GI50 with EKVX and in the assay on SN12C was > 100 µM (inactive) throughout.
As for `C=C(Cl)[C@@](Cl)(CBr)CC[C@@H](Br)C(C)(C)Cl`, the GI50 with SNB-19 was 0.499 µM (active); in the assay with SF-268 it was 0.251 µM (active); with COLO 205, 0.5 µM (active); in the assay with NCI-H23, 8.02 µM (inactive); in the assay with HT-29, 0.253 µM (active); with NCI-H522, 22.4 µM (inactive). Further, the GI50 in the assay with Hs-578T was 0.386 µM (active); in the assay with UACC-62, 0.745 µM (active); in the assay on OVCAR-4, 0.912 µM (active); in the assay on K562 it was 0.473 µM (active); with SK-MEL-2, 0.458 µM (active); in the assay with 786-0 it was 0.0603 µM (active). For the same compound, the GI50 in the assay with RPMI-8226 is 0.0566 µM (active); in the assay with HCC 2998, 0.488 µM (active); with T47D it was 0.153 µM (active); in the assay on MOLT-4 it was 22.9 µM (inactive); with SF-539, 0.141 µM (active); with MCF7 it was 0.249 µM (active). Also, the GI50 in the assay with EKVX is 2.97 µM (inactive); in the assay with SN12C it was 2.11 µM (inactive).
As for `CCOC(=O)C(=O)/C(=C/N1C(=O)CC(=O)NC1=S)C(=O)OCC`, the GI50 with SNB-19, in the assay on SF-268, in the assay on COLO 205, in the assay with NCI-H23, with HT-29 and with NCI-H522 was > 100 µM (inactive) throughout. In addition, the GI50 was 18.7 µM (inactive) with Hs-578T; > 100 µM (inactive) in the assay on UACC-62; > 100 µM (inactive) with OVCAR-4; > 100 µM (inactive) in the assay on K562; > 100 µM (inactive) in the assay with SK-MEL-2; > 100 µM (inactive) with 786-0. The GI50 in the assay with RPMI-8226, in the assay with HCC 2998, with T47D, in the assay on MOLT-4, in the assay on SF-539 and in the assay on MCF7 was > 100 µM (inactive) throughout. The GI50 in the assay on EKVX and with SN12C was > 100 µM (inactive) each time.
For the compound `OCCOc1ccc(-c2cc(-c3ccccn3)nc(-c3ccccn3)c2)cc1`, the GI50 in the assay on SNB-19 was 0.284 µM (active); in the assay on SF-268, 0.107 µM (active); in the assay with COLO 205 it was 0.115 µM (active); in the assay with NCI-H23 it was 0.447 µM (active); in the assay on HT-29 it was 0.112 µM (active); in the assay with NCI-H522, 0.661 µM (active). For the same compound, the GI50 with Hs-578T was 1.37 µM (inactive); in the assay with UACC-62, 0.206 µM (active); in the assay with OVCAR-4 it was 0.0731 µM (active); in the assay on K562, 0.107 µM (active); in the assay on SK-MEL-2, 0.115 µM (active); with 786-0, 0.0736 µM (active). Further, the GI50 in the assay on RPMI-8226 was 0.242 µM (active); in the assay on HCC 2998 it was 0.0578 µM (active); in the assay on T47D, 0.553 µM (active); in the assay on MOLT-4, 0.0767 µM (active); with SF-539 it was 0.19 µM (active); in the assay on MCF7 it was 0.277 µM (active). For the same compound, the GI50 in the assay with EKVX is 0.107 µM (active); in the assay with SN12C, 0.195 µM (active).
With `O=C(c1ccccc1)c1nc2ccc(Cl)cc2cc1C(Br)Br`, the GI50 with SNB-19 is 0.425 µM (active); in the assay with SF-268 it was 0.384 µM (active); in the assay on COLO 205, 0.344 µM (active); with NCI-H23 it was 0.304 µM (active); in the assay with HT-29, 0.197 µM (active); with NCI-H522, 1.82 µM (inactive). Moreover, the GI50 in the assay with Hs-578T is 0.193 µM (active); in the assay with UACC-62, 0.569 µM (active); in the assay on OVCAR-4 it was 0.407 µM (active); in the assay with K562 it was 0.244 µM (active); in the assay with SK-MEL-2 it was 0.45 µM (active); in the assay on 786-0 it was 0.17 µM (active). The GI50 in the assay on RPMI-8226 is 0.229 µM (active); in the assay with HCC 2998, 0.316 µM (active); in the assay with T47D, 0.2 µM (active); in the assay with MOLT-4, 0.678 µM (active); in the assay on SF-539, 0.246 µM (active); with MCF7, 0.314 µM (active). Moreover, the GI50 was 0.493 µM (active) with EKVX and 0.252 µM (active) with SN12C.

The record behind these values is ChEMBL document CHEMBL1201862, “PubChem BioAssay data set” (2004).
